The values below come from ChEMBL document CHEMBL4002605, “Synthesis, identification and in vitro biological evaluation of some novel quinoline incorporated 1,3-thiazinan-4-one derivatives” (Bioorg Med Chem Lett, 2017).

One test has as its system Streptococcus pneumoniae. The test is described as follows: Antibacterial activity against Streptococcus pneumoniae MTCC 1936 by broth microdilution assay method. It counts as functional. In general terms: In broth dilution the organism is exposed to a series of concentrations in liquid medium.
The subject of another test is Bacillus subtilis. The test is described as follows: Antibacterial activity against Bacillus subtilis MTCC 441 by broth microdilution assay method. It counts as functional.
For another test, the system named is Clostridium tetani. The test can be described thus: Antibacterial activity against Clostridium tetani MTCC 449 by broth microdilution assay method. It counts as functional.
The subject of another test is Escherichia coli. The test can be described thus: Antibacterial activity against Escherichia coli MTCC 443 by broth microdilution assay method. It counts as functional.
Another test concerns Salmonella typhi. The test can be described thus: Antibacterial activity against Salmonella typhi MTCC 98 by broth microdilution assay method. The settings on record: Salmonella enterica. It counts as functional, Salmonella enterica subsp. enterica serovar Typhi.
In the next test the test system is Vibrio cholerae. The test is described as follows: Antibacterial activity against Vibrio cholerae MTCC 3906 by broth microdilution assay method. It counts as functional.
The subject of test [1] is Mycobacterium tuberculosis. The test is described as follows: Antitubercular activity against Mycobacterium tuberculosis H37Rv at 6 ug/mL. It counts as functional.
Another test concerns Plasmodium falciparum. The test is described as follows: Antimalarial activity against Plasmodium falciparum. It counts as functional.

≈ marks a conversion by molar mass, not a printed value.

In the case of `O=C1CCSC(c2ccc(Cl)cc2)N1CCCCNc1ccnc2cc(Cl)ccc12` (stereo unspecified), the MIC (commonly the lowest concentration that inhibits growth of the organism) with Streptococcus pneumoniae stood at 250 µg/mL (≈ 543 µM); in the test with Bacillus subtilis it was 250 µg/mL (≈ 543 µM); in the test on Clostridium tetani, 125 µg/mL (≈ 271 µM); against Escherichia coli it was 250 µg/mL (≈ 543 µM); in the test with Salmonella typhi, 125 µg/mL (≈ 271 µM); in the test on Vibrio cholerae, 62.5 µg/mL (≈ 136 µM). Besides, at 6 µg/mL the inhibition in test [1] was 60%. Moreover, the IC50 (in general, the point on the concentration scale where inhibition reaches its midpoint) in the test on Plasmodium falciparum was 0.14 µg/mL (≈ 0.304 µM).
On to `O=C1CCSC(c2ccc(O)cc2)N1CCCCNc1ccnc2cc(Cl)ccc12` (stereo unspecified), for which the MIC amounted to 250 µg/mL (≈ 566 µM) in the test with Streptococcus pneumoniae; 250 µg/mL (≈ 566 µM) with Bacillus subtilis; 500 µg/mL (≈ 1130 µM) against Clostridium tetani; 125 µg/mL (≈ 283 µM) in the test on Escherichia coli; 250 µg/mL (≈ 566 µM) against Salmonella typhi; 250 µg/mL (≈ 566 µM) with Vibrio cholerae. Besides, the inhibition (commonly the relative decrease from the control value, in per cent) at 6 µg/mL in test [1] was 38%. Further, half-maximal inhibition with Plasmodium falciparum (IC50) was put at 2.64 µg/mL (≈ 5.97 µM).
In the case of `O=C1CCSC(c2ccc(Br)cc2)N1CCCCNc1ccnc2cc(Cl)ccc12` (stereo unspecified), the MIC in the test on Streptococcus pneumoniae worked out at 100 µg/mL (≈ 198 µM); against Bacillus subtilis, 100 µg/mL (≈ 198 µM); in the test on Clostridium tetani, 250 µg/mL (≈ 495 µM); in the test with Escherichia coli, 62.5 µg/mL (≈ 124 µM); against Salmonella typhi, 62.5 µg/mL (≈ 124 µM); in the test with Vibrio cholerae, 125 µg/mL (≈ 248 µM). This molecule returned an inhibition at 6 µg/mL in test [1] of 82%. The molecule also yielded an IC50 in the test on Plasmodium falciparum of 0.064 µg/mL (≈ 0.127 µM).
Turning to `O=C1CCSC(c2ccccc2)N1CCCCNc1ccnc2cc(Cl)ccc12` (stereo unspecified), the MIC against Streptococcus pneumoniae, against Bacillus subtilis, against Clostridium tetani, in the test on Escherichia coli, in the test on Salmonella typhi and in the test with Vibrio cholerae was 500 µg/mL (≈ 1170 µM) each time. In test [1], this molecule gave an inhibition at 6 µg/mL of 32%. This molecule had an IC50 with Plasmodium falciparum of 3.12 µg/mL (≈ 7.32 µM).
On to `O=C1CCSC(c2cccc(Cl)c2)N1CCNc1ccnc2cc(Cl)ccc12` (stereo unspecified), for which the MIC with Streptococcus pneumoniae was 125 µg/mL (≈ 289 µM); with Bacillus subtilis it was 250 µg/mL (≈ 578 µM); in the test with Clostridium tetani, 250 µg/mL (≈ 578 µM); in the test with Escherichia coli, 125 µg/mL (≈ 289 µM); in the test on Salmonella typhi, 250 µg/mL (≈ 578 µM); in the test on Vibrio cholerae it was 250 µg/mL (≈ 578 µM). Besides, in test [1], 6 µg/mL produced 60% inhibition. For the same molecule, in the test with Plasmodium falciparum, the IC50 was found to be 1.57 µg/mL (≈ 3.63 µM).
As to `O=C1CCSC(c2ccc(F)cc2)N1CCCNc1ccnc2cc(Cl)ccc12` (stereo unspecified), the MIC against Streptococcus pneumoniae was found to be 31.2 µg/mL (≈ 72.7 µM); against Bacillus subtilis, 62.5 µg/mL (≈ 145 µM); against Clostridium tetani, 100 µg/mL (≈ 233 µM); against Escherichia coli, 62.5 µg/mL (≈ 145 µM); against Salmonella typhi, 125 µg/mL (≈ 291 µM); with Vibrio cholerae, 100 µg/mL (≈ 233 µM). The molecule also gave an inhibition at 6 µg/mL in test [1] of 78%. This molecule displayed an IC50 in the test on Plasmodium falciparum of 0.089 µg/mL (≈ 0.207 µM).
In the case of `O=C(NN1C(=O)CCSC1c1cccc(Cl)c1)c1cnc2c(C(F)(F)F)cccc2c1O` (stereo unspecified), the MIC against Streptococcus pneumoniae was 250 µg/mL (≈ 519 µM); in the test with Bacillus subtilis, 125 µg/mL (≈ 259 µM); against Clostridium tetani, 250 µg/mL (≈ 519 µM); against Escherichia coli it was 125 µg/mL (≈ 259 µM); with Salmonella typhi, 250 µg/mL (≈ 519 µM); with Vibrio cholerae it was 250 µg/mL (≈ 519 µM). Moreover, in test [1], the inhibition at 6 µg/mL turned out to be 71%. This molecule also had an IC50 in the test on Plasmodium falciparum of 1.2 µg/mL (≈ 2.49 µM).
For `O=C1CCSC(c2ccc(O)cc2)N1CCCNc1ccnc2cc(Cl)ccc12` (stereo unspecified), the minimal inhibitory concentration (MIC) was determined as 125 µg/mL (≈ 292 µM) with Streptococcus pneumoniae; 250 µg/mL (≈ 584 µM) in the test with Bacillus subtilis; 250 µg/mL (≈ 584 µM) against Clostridium tetani; 250 µg/mL (≈ 584 µM) in the test on Escherichia coli; 62.5 µg/mL (≈ 146 µM) with Salmonella typhi; 250 µg/mL (≈ 584 µM) against Vibrio cholerae. In addition, in test [1], 6 µg/mL produced 42% inhibition. This molecule came in with an IC50 in the test with Plasmodium falciparum of 1.14 µg/mL (≈ 2.66 µM).
Consider `O=C1CCSC(c2ccc(Cl)cc2)N1CCNc1ccnc2cc(Cl)ccc12` (stereo unspecified), for which the MIC in the test with Streptococcus pneumoniae stood at 125 µg/mL (≈ 289 µM); against Bacillus subtilis, 62.5 µg/mL (≈ 145 µM); in the test on Clostridium tetani, 62.5 µg/mL (≈ 145 µM); against Escherichia coli, 125 µg/mL (≈ 289 µM); against Salmonella typhi it was 250 µg/mL (≈ 578 µM); in the test on Vibrio cholerae, 125 µg/mL (≈ 289 µM). This molecule also returned an inhibition at 6 µg/mL in test [1] of 73%. For the same molecule, the IC50 in the test on Plasmodium falciparum was 0.098 µg/mL (≈ 0.227 µM).
Regarding `O=C(NN1C(=O)CCSC1c1cccc(F)c1)c1cnc2c(C(F)(F)F)cccc2c1O` (stereo unspecified), the MIC against Streptococcus pneumoniae came to 250 µg/mL (≈ 537 µM); against Bacillus subtilis, 125 µg/mL (≈ 269 µM); in the test on Clostridium tetani, 125 µg/mL (≈ 269 µM); in the test on Escherichia coli, 125 µg/mL (≈ 269 µM); with Salmonella typhi, 250 µg/mL (≈ 537 µM); in the test with Vibrio cholerae, 125 µg/mL (≈ 269 µM). The inhibition at 6 µg/mL in test [1] came out at 73%. The molecule also registered an IC50 with Plasmodium falciparum of 0.91 µg/mL (≈ 1.96 µM).
On to `COc1cccc(C2SCCC(=O)N2CCCCNc2ccnc3cc(Cl)ccc23)c1` (stereo unspecified), for which the MIC in the test on Streptococcus pneumoniae was 500 µg/mL (≈ 1100 µM); in the test with Bacillus subtilis it was 500 µg/mL (≈ 1100 µM); in the test on Clostridium tetani it was 250 µg/mL (≈ 548 µM); against Escherichia coli, 250 µg/mL (≈ 548 µM); against Salmonella typhi, 250 µg/mL (≈ 548 µM); against Vibrio cholerae it was 125 µg/mL (≈ 274 µM). The inhibition at 6 µg/mL in test [1] turned out to be 42%. This molecule also came in with an IC50 with Plasmodium falciparum of 2.14 µg/mL (≈ 4.69 µM).
As to `O=C(NN1C(=O)CCSC1c1ccc(F)cc1)c1cnc2c(C(F)(F)F)cccc2c1O` (stereo unspecified), the MIC came out at 125 µg/mL (≈ 269 µM) in the test with Streptococcus pneumoniae; 31.2 µg/mL (≈ 67.1 µM) with Bacillus subtilis; 15.6 µg/mL (≈ 33.5 µM) against Clostridium tetani; 125 µg/mL (≈ 269 µM) with Escherichia coli; 250 µg/mL (≈ 537 µM) in the test on Salmonella typhi; 125 µg/mL (≈ 269 µM) in the test on Vibrio cholerae. The same molecule came in with an inhibition at 6 µg/mL in test [1] of 92%. The same molecule returned an IC50 in the test on Plasmodium falciparum of 0.052 µg/mL (≈ 0.112 µM).
